Measurements: the Bradley open melting point set (2014)
“And” between values parts separate entries of the source, which are not always exact repeats. Equal values may be shown once. Where a name gives a salt, the structure may show the parent alone.

| SMILES | melting point |
| --- | --- |
| NC(=O)N1c2ccccc2C=Cc2ccccc21 [Carbamazepine] [listing 1 of 2 here] | 190 °C |
| NC(=O)N1c2ccccc2C=Cc2ccccc21 [Carbamazepine] [listing 2 of 2 here] | 190 °C |
| NC(CN(Cc1ccccc1)c1ccccc1)=NO [Cetoxime] | 107 °C |
| N=C(NCCCCCCNC(=N)NC(=N)Nc1ccc(Cl)cc1)NC(=N)Nc1ccc(Cl)cc1 [Chlorhexidine] | 134 °C |
| FC(F)Cl [Chloro(difluoro)methane] | -146 °C |
| O=C(O)CCl [Chloroacetic acid] | 63 °C |
| CCCNC(=O)NS(=O)(=O)c1ccc(Cl)cc1 [Chlorpropamide] | 128 °C |
| COc1cc(N)c(Cl)cc1C(=O)NC1CCN(CCCOc2ccc(F)cc2)CC1OC (stereo not drawn) [Cisapride] | 110 °C |
| CC[C@H]1OC(=O)[C@H](C)[C@@H](O[C@@H]2C[C@](C)(OC)[C@H](O)[C@@H](C)O2)[C@H](C)[C@@H](O[C@@H]2O[C@H](C)C[C@H](N(C)C)[C@H]2O)[C@](C)(OC)C[C@@H](C)C(=O)[C@H](C)[C@@H](O)[C@]1(C)O [Clarithromycin] | 218 °C |
| O=C1CN=C(c2ccccc2Cl)c2cc([N+](=O)[O-])ccc2N1 [Clonazepam] | 238 °C |
| c1cc2ccc3ccc4ccc5ccc6ccc1c1c2c3c4c5c61 [Coronene] | 438 °C |
| C1CCCCCCCCCCC1 [Cyclododecane] | 61 °C |
| NC1CCCCC1 [Cyclohexanamine] | -18 °C |
| [C-]#[N+]C1CCCCC1 [Cyclohexyl isocyanide] | 6 °C |
| c1ccc(C2CCCCC2)cc1 [Cyclohexylbenzene] | 5 °C |
| O=P1(N(CCCl)CCCl)NCCCO1 (stereo not drawn) [Cyclophosphamide] | 43 °C |
| NS(=O)(=O)c1cc2c(cc1Cl)NC(C1CC3C=CC1C3)NS2(=O)=O (stereo not drawn) [Cyclothiazide] | 228 °C |
| Nc1ccn([C@@H]2O[C@H](CO)[C@@H](O)[C@H]2O)c(=O)n1 [Cytidine] | 210 °C |
| OC[C@@H](O)[C@@H](O)[C@@H](O)CO [D-Ribitol] | 102 °C |
| O=C(CO)[C@H](O)[C@@H](O)[C@H](O)CO [D-Sorbose] | 95 °C |
| C[C@@H](O)[C@@H](N)C(=O)O [D-allo-threonine] | 278 °C |
| C(O)[C@@H](O)[C@@H](O)[C@H](O)CO [D-arabitol] | 102 °C |
| CC1(C)O[C@@H]2CO[C@]3(COC(C)(C)O3)C(=O)[C@@H]2O1 [D-epoxone] | 102 °C |

| SMILES | melting point |
| --- | --- |
| N[C@@H](CO)Cc1ccccc1 [D-phenylalaninol] | 92 °C |
| Clc1ccc(C(c2ccc(Cl)cc2)C(Cl)(Cl)Cl)cc1 [DDT] | 109 °C (4×) and 108 °C (2×) |
| BrCBr [Dibromomethane] | -52 °C |
| FC(F)(Cl)Cl [Dichloro(difluoro)methane] | -158 °C |
| O=C(O)C(Cl)Cl [Dichloroacetic acid] | 9.7 °C |
| ClC1=C(Cl)C2(Cl)C3C4CC(C5OC45)C3C1(Cl)C2(Cl)Cl (stereo not drawn) [Dieldrin] | 175 °C |
| CCOCC [Diethyl ether] | -116 °C |
| CCOS(=O)(=O)OCC [Diethyl sulfate] | -24 °C |
| C[C@H]1O[C@@H](O[C@H]2[C@@H](O)C[C@H](O[C@H]3[C@@H](O)C[C@H](O[C@H]4CC[C@@]5(C)[C@H](CC[C@@H]6[C@@H]5CC[C@]5(C)[C@@H](C7=CC(=O)OC7)CC[C@]65O)C4)O[C@@H]3C)O[C@@H]2C)C[C@H](O)[C@@H]1O [Digitoxin] | 256 °C |
| CCCCCCCCCCCC(=O)OOC(=O)CCCCCCCCCCC [Diundecylperoxyanhydride] | 56 °C |
| ClC1=C(Cl)C2(Cl)C3C4CC(C5OC45)C3C1(Cl)C2(Cl)Cl (stereo not drawn) [Endrin] | 210 °C |
| CN[C@@H](C)[C@H](O)c1ccccc1 [Ephedrine] | 34 °C |
| CC(=O)OO [Ethaneperoxoic acid] | 0.1 °C |
| C=CC(=O)OCC [Ethyl acrylate] | -71 °C |
| O=[N+]([O-])c1ccc(Oc2ccc(C(F)(F)F)cc2[N+](=O)[O-])cc1 [Fluorodifen] | 90 °C |
| CCC1(C2=CCCCCC2)C(=O)NC(=O)NC1=O [Heptabarbital] | 174 °C |
| ClC1=C(Cl)C2(Cl)C3C(Cl)C=CC3C1(Cl)C2(Cl)Cl (stereo not drawn) [Heptachlor] | 95 °C |
| O=C(O)C(F)(F)C(F)(F)C(F)(F)C(F)(F)C(F)(F)C(F)(F)C(F)(F)C(F)(F)F [Heptadecafluorononanoic acid] | 66.5 °C |
| ClC(Cl)(Cl)C(Cl)(Cl)Cl [Hexachloroethane] | 192 °C |
| O=P1(NCCCl)OCCCN1CCCl (stereo not drawn) [Ifosfamide] | 40 °C |
| CCI [Iodoethane] | -108 °C |
| CI [Iodomethane] | -64 °C |

Further lines, results first:

| melting point | SMILES |
| --- | --- |
| 112 °C | O[C@@H]1[C@H](O)[C@@H](O)OC[C@H]1O [D-lyxose] |
| 165 °C | O=C(O)[C@@]1(O)CC(O)[C@H](O)[C@H](O)C1 (stereo partly drawn) [D-quinic acid] |
| 199 °C | OCc1ccccc1O[C@@H]1O[C@H](CO)[C@@H](O)[C@H](O)[C@H]1O [D-salicin] |
| 164 °C | O=C(CO)[C@H](O)[C@@H](O)[C@H](O)CO [D-sorbose] |
| 161 °C | CCOC(=O)C(C#N)=c1sc(=C(C#N)C(=O)OCC)s1 [DIETHYL 2,2'-(1,3-DITHIETANE-2,4-DIYLIDENE)BIS(CYANOACETATE)] |
| -44 °C | C#CCCCCCCCC [Dec-1-yne] |
| -14 °C | CCCCCCCCCCc1ccccc1 [Decylbenzene] |
| 262 °C | C[C@@H]1C[C@H]2[C@@H]3CCC4=CC(=O)C=C[C@]4(C)[C@@]3(F)[C@@H](O)C[C@]2(C)[C@@]1(O)C(=O)CO [Dexamethasone] |
| 194 °C | C[C@@H](CN1CC(=O)NC(=O)C1)N1CC(=O)NC(=O)C1 [Dexrazoxane] |
| 330 °C | CC1=NS(=O)(=O)c2cc(Cl)ccc2N1 [Diazoxide] |
| 269 °C | c1ccc2c(c1)ccc1cc3c(ccc4ccccc43)cc12 [Dibenz[ah]anthracene] |
| -43 °C | CCOC(=O)OCC [Diethyl carbonate] |
| -50 °C | CCOC(=O)CC(=O)OCC [Diethyl malonate] |
| 170 °C | Oc1ccc(cc1)C(CC)=C(/CC)c2ccc(O)cc2 [Diethylstilbestrol] |
| -106 °C | CC(C)SC(C)C [Diisopropyl sulfide] |
| 8 °C | COC(=O)CCCCC(=O)OC [Dimethyl adipate] |
| 19.5 °C | COC(=O)CCC(=O)OC [Dimethyl succinate] |
| -98 °C | CSC [Dimethyl sulfide] |
| 141 °C | COC(=O)c1ccc(C(=O)OC)cc1 [Dimethyl terephthalate] |
| -60.4 °C | CN(C)C=O [Dimethylformamide] |

| melting point | SMILES |
| --- | --- |
| 27 °C | c1ccc(Oc2ccccc2)cc1 [Diphenyl ether] |
| 24 °C | CCCCCCCCCCCCO [Dodecan-1-ol] |
| 150 °C | CCCCCCCCCCCCO[C@@H]1O[C@H](CO)[C@@H](O[C@H]2O[C@H](CO)[C@@H](O)[C@H](O)[C@H]2O)[C@H](O)[C@H]1O [Dodecyl 4-O-alpha-D-glucopyranosyl-beta-D-glucopyranoside] |
| 185 °C | CN(C)CCC=C1c2ccccc2COc2ccccc21 [Doxepin] |
| 87 °C | Clc1ccc(COC(Cn2ccnc2)c2ccc(Cl)cc2Cl)cc1 (stereo not drawn) [Ecostatin] |
| 256 °C | CSc1ccc(C(=O)c2[nH]c(=O)[nH]c2C)cc1 [Enoximone] |
| 92 °C | C=CCOc1ccc(CC(=O)O)cc1Cl [Epinal] |
| 122 °C | C=C(CC)C(=O)c1ccc(OCC(=O)O)c(Cl)c1Cl [Ethacrynic acid] |
| -41 °C | SCCS [Ethane-1,2-dithiol] |
| -114 °C | CCO [Ethanol] |
| -22 °C | C=C(C#N)C(=O)OCC [Ethyl 2-cyanoacrylate] |
| 117 °C | CCOC(=O)c1ccc(O)cc1 [Ethyl 4-hydroxybenzoate] |
| 7 °C | CCOC(=O)/C=C/c1ccccc1 [Ethyl (2E)-3-phenylacrylate] |
| 117 °C | CCOC(=O)/C(C#N)=C\c1ccc(-c2ccccc2)o1 [Ethyl (2Z)-2-cyano-3-(5-phenyl-2-furyl)acrylate] |
| 121 °C | CCOC(=O)/C(C#N)=C\c1ccc(-c2ccccc2OC)o1 [Ethyl (2Z)-2-cyano-3-[5-(2-methoxyphenyl)-2-furyl]acrylate] |
| 103 °C | CCOC(=O)/C(C#N)=N\Nc1ccccc1[N+](=O)[O-] [Ethyl (2Z)-cyano[(2-nitrophenyl)hydrazono]acetate] |
| -94.9 °C | CCc1ccccc1 [Ethylbenzene] |
| 116 °C | O=C(c1ccccc1)c1ccc(C(F)(F)F)cc1 [FXFFR DVR] |
| 186 °C | O=C(O)CCC(=O)c1ccc(-c2ccccc2)cc1 [Fenbufen] |
| 116 °C | c1ccc2c(c1)Cc1ccccc1-2 [Fluorene] |

| melting point | SMILES |
| --- | --- |
| 206 °C | NS(=O)(=O)c1cc(C(=O)O)c(NCc2ccco2)cc1Cl [Furosemide] |
| 302 °C | O=c1c(-c2ccc(O)cc2)coc2cc(O)cc(O)c12 [Genistein] |
| 50 °C | N=C(N)N [Guanidine] |
| 152 °C | O=C(CCCN1CCC(O)(c2ccc(Cl)cc2)CC1)c1ccc(F)cc1 [Haloperidol] |
| -35 °C | CCCCCC(C)=O [Heptan-2-one] |
| -91 °C | CCCCCCC [Heptane] |
| -9 °C | CCCCCCC(=O)O [Heptanoic acid] |
| 18 °C | CCCCCCCCCCCCCCCC [Hexadecane] |
| -52 °C | CCCCCCO [Hexan-1-ol] |
| -3 °C | CCCCCC(=O)O [Hexanoic acid] |
| -61 °C | CCCCCCc1ccccc1 [Hexylbenzene] |
| 143 °C | O=C1Cc2ccccc2C(=O)O1 [Homophthalic acid anhydride] |
| -87 °C and -86 °C | Br [Hydrogen bromide] |
| 144 °C | NC(=O)NO [Hydroxyurea] |
| 75 °C | CC(C)Cc1ccc(C(C)C(=O)O)cc1 (stereo not drawn) [Ibumetin] |
| 36.7 °C | CCCCCCCCCCCCCCCCCCCC [Icosane] |
| 293 °C | CC(C)Cn1cnc2c(N)nc3ccccc3c21 [Imiquimod] |
| 61 °C | CC(C)c1ncc([N+](=O)[O-])n1C [Ipronidazole] |
